Assay results published in patent publication US20230382871A1, “CSF1R KINASE INHIBITOR AND USE THEREOF” (SHANGHAI INSTITUTE OF MATERIA MEDICA, CHINESE ACADEMY OF …, priority 2020, published 2023).
“And” between values parts separate entries of the source, which are not always exact repeats. Equal values may be shown once.

Columns and labels:
BMDM cells = assay: CCK8 cell proliferation inhibition assay on CSF1-stimulated bone marrow-derived macrophages; type: cell-based, mice (BALB/c); settings: Mus musculus, 72 h exposure
Description: Mice (BALB/c) were subjected to euthanasia and then immersed in 75% alcohol for 3-5 min. The tibias and femurs of the mice were removed with ophthalmic forceps and ophthalmic clips on an ultraclean table. The tibial and femoral joints were cut off and bone marrow cells were washed out with a sterile buffer. Bone marrow cells were filtered with a 70 µm nylon membrane. The filtrate was centrifuged and the supernatant was discarded. An erythrocyte lysate was added to the pellets, which were allowed to incubate for 3-4 min. Then, a sterile buffer was added to stop the lysis reaction. The reactant was centrifuged and the supernatant was discarded, thereby yielding bone marrow cell pellets. The cells were cultured in 1640 medium (supplemented with FBS and 10 ng/mL of CSF1) for 5 to 7 days and identified as macrophages by flow cytometry. CCK8 cell counting kits were used in this assay. Bone marrow-derived macrophages, after induction by CSF1 for 5 to 7 days, were seeded into 96-well culture plates and allowed to incubate overnight. Then, the cells were exposed to compounds at various concentrations for 72 h. A blank control group was set. 10 μL of CCK8 reagent was added to each well and the places were placed in an incubator for 4 to 12 h. The plates were read with a microplate reader at a wavelength of 450 nm. […] Each experiment was independently repeated for three times.

[1] = system: human glioma U87MG subcutaneous xenografts; assay: Human glioma U87MG subcutaneous xenografts in nude mice; type: in vivo, BALB/c nude mice; settings: 40 mg/kg bid × 21 po
Description: BALB/c nude female mice of 3-4 weeks old were used, and were provided by […] […] OF MATERIA MEDICA, CHINESE ACADEMY OF SCIENCES.
Human glioma U87MG cells were subcutaneously inoculated into the right axillary fossa of a nude mouse (5×10^6 cells/mouse). After a xenograft was formed, the tumor was transferred to a nude mouse for 1 passage.
Tumor tissues at the vigorous growth stage were removed and cut into pieces of approximately 1.5 mm^3. The tumor fragments were inoculated subcutaneously into the right axillary fossa of nude mice under aseptic conditions. The diameters of the subcutaneous xenografts in nude mice were measured with a vernier caliper. The animals were randomly grouped after the xenografts reached an average volume of about 90 mm^3. Compound I was administered orally at doses of 40 mg/kg, 20 mg/kg and 10 mg/kg twice a day for 21 consecutive days. An equal volume of a blank preparation was administered orally twice a day for 21 consecutive days. The positive control drug Axitinib was administered orally at a dose of 40 mg/kg group twice a day for 21 consecutive days. An equal volume of water for injection was administered to the animals in the solvent group. Throughout the experiment, the diameters of the xenografts were measured twice a week and the mice were weighed at the same time. The tumor volume (TV) was calculated as TV=½×a×b^2, where “a” and “b” denote the length and width of a tumor, respectively. The relative tumor volume (RTV) was calculated from the measurement results with the calculation formula RTV=Vt/V0, in which V0 is the tumor volume measured upon administration after grouping (i.e., D0) and Vt is the tumor volume from each measurement. The evaluation index of anti-tumor activity is the relative tumor proliferation rate T/C (%), which is calculated as T/C (%)=(TRTV/CRTV)×100%, in which TRTV denotes the RTV from the treatment group and CRTV denotes the RTV from solvent group.

[2] = system: human colorectal cancer HT-29 subcutaneous xenografts; assay: Human colorectal cancer HT-29 subcutaneous xenografts in nude mice; type: in vivo, BALB/c nude mice; settings: 40 mg/kg bid × 21 po
Excerpt: BALB/c female nude mice of 6 weeks old were used, and were provided by Shanghai Lingchang Biotechnology Co., Ltd.
Human colorectal cancer HT-29 cells were subcutaneously inoculated into the right axillary fossa of a nude mouse (5×10^6 cells/mouse). After a xenograft was formed, the tumor was transferred to a nude mouse for 1 passage.
Tumor tissues at the vigorous growth stage were removed and cut into pieces of approximately 1.5 mm^3. The tumor fragments were inoculated subcutaneously into the right axillary fossa of nude mice under aseptic conditions. The diameters of the subcutaneous xenografts in nude mice were measured with a vernier caliper. The animals were randomly grouped after the xenografts reached an average volume of about 120 mm^3. Compound I was administered orally at doses of 20 mg/kg, 10 mg/kg and 5 mg/kg twice a day for 21 consecutive days. An equal volume of a blank preparation was administered orally twice a day for 21 consecutive days. The positive control drug Axitinib was administered orally at a dose of 40 mg/kg group twice a day for 21 consecutive days. An equal volume of water for injection was administered to the animals in the solvent group. Throughout the experiment, the diameters of the xenografts were measured twice a week and the mice were weighed at the same time. The tumor volume (TV) was calculated as TV=½×a×b^2, where “a” and “b” denote the length and width of a tumor, respectively. The relative tumor volume (RTV) was calculated from the measurement results with the calculation formula RTV=Vt/V0, in which V0 is the tumor volume measured upon administration after grouping (i.e., D0) and Vt is the tumor volume from each measurement. The evaluation index of anti-tumor activity is the relative tumor proliferation rate T/C (%), which is calculated as T/C (%)=(TRTV/CRTV)×100%, in which TRTV denotes the RTV from the treatment group and CRTV denotes the RTV from solvent group.

[3] = system: macrophage marker F4/80 in U87MG tumor tissues; assay: Immunohistochemistry of macrophage marker F4/80 in U87MG tumor tissues; type: in vivo, nude mice; settings: 40 mg/kg, compared with blank preparation group
Description: (§1) At the end of the in vivo experiments, U87MG and HT-29 xenografts in nude mice were removed and fixed with […] to prepare paraffin sections.
(§2) Expression of individual proteins was assessed using multiplicative quick score method (MQS). This evaluation method takes into account both the staining intensity and the staining range. The method estimates the proportion of positive cells and gives a range score from 1 to 6 (1=1%-4%; 2=5%-19%; 3=20%-39%; 4=40%-59%; 5=60%-79%; 6=80%-100%). The average intensity score of positive stained cells was 0 to 3 (0=no staining; 1=weak staining; 2=moderate staining; 3=strong staining). The total score a (minimum 0 and maximum 18) is then calculated by multiplying the range score by the intensity score.
(§3) For detecting the changes in the macrophage marker F4/80 and M2-type macrophage marker CD206 in the U87MG tumor tissues, quantitative analysis (solvent: n=6, blank preparation: n=6, Compound I (10 mg/kg): n=6, Compound I (20 mg/kg): n=6, Compound I (40 mg/kg): n=6, Axitinib: n=4) was performed on all sections and the experimental data were analyzed for significant differences using the t-test. * denotes p<0.05 as compared with the blank preparation group, ** denotes p<0.01 as compared with the blank preparation group, and denotes p<0.001 as compared with the blank preparation group.

[4] = system: M2-type macrophage marker CD206 in U87MG tumor tissues; assay: Immunohistochemistry of M2-type macrophage marker CD206 in U87MG tumor tissues; type: in vivo, nude mice; settings: 40 mg/kg
Description: as §1, §2, §3

[5] = system: macrophage marker F4/80 in HT-29 tumor tissues; assay: Immunohistochemistry of macrophage marker F4/80 in HT-29 tumor tissues; type: in vivo, nude mice; settings: Compound I 5, 10, 20 mg/kg; Axitinib 40 mg/kg
Description: At the end of the in vivo experiments, U87MG and HT-29 xenografts in nude mice were removed and fixed with […] to prepare paraffin sections. Expression of individual proteins was assessed using multiplicative quick score method (MQS). This evaluation method takes into account both the staining intensity and the staining range. […] The average intensity score of positive stained cells was 0 to 3 (0=no staining; 1=weak staining; 2=moderate staining; 3=strong staining). The total score a (minimum 0 and maximum 18) is then calculated by multiplying the range score by the intensity score.

[6] = system: M2-type macrophage marker CD206 in HT-29 tumor tissues; assay: Immunohistochemistry of M2-type macrophage marker CD206 in HT-29 tumor tissues; type: in vivo, nude mice; settings: Compound I 5, 10, 20 mg/kg; Axitinib 40 mg/kg
Description: as §1, §2
as §3, with “the HT-29” for “the U87MG”, “(solvent: n=12,” for “(solvent: n=6,”, “preparation: n=6, Compound I (5 mg/kg):” for “preparation:”, “n=6,” for “n=6, Compound I (40 mg/kg): n=6,”, “Axitinib: n=6)” for “Axitinib: n=4)”

[7] = system: human glioma U87MG brain in situ transplantation; assay: Survival in U87MG brain in situ transplantation model in nude mice; type: in vivo, BALB/cA nude mice
[8] = treated patients; cited from earlier work
[9] = 40 mg/kg, implantation day as Day 0

`FC(F)(F)c1ccc(CNc2ccc(Cc3c[nH]c4ncc(Cl)cc34)cn2)cn1` [PLX3397, Pexidartinib, reference compound] gave an IC50 (BMDM cells) of 30 ± 9 nM.
In the case of `CNC(=O)c1ccccc1Sc1ccc2c(/C=C/c3ccccn3)n[nH]c2c1` [Axitinib, reference compound], the “Body Weight (g) D 0” value ([1]; D 0) is reported as 16.0 g, the “TV (mm^3, mean ± SD) D 0” value ([1]; D 0) is reported as 88 ± 17 mm^3 and the “Body Weight (g) D 21” value ([1]; D 21) is reported as 18.0 g. The “RTV (mean ± SD)” value ([1]; D 21) was 9.08 ± 5.66, the “TV (mm^3, mean ± SD) D 21” value ([1]; D 21) was 795 ± 478 mm^3 and the “T/C (%)” value ([1]; Day 21) was 30.27%. The “Body Weight (g) D 0” value ([2]; D 0) was 19.1 g, the “TV (mm3, mean ± SD) D 0” value ([2]; D 0) was 123 ± 35 mm3 and the “Body Weight (g) D 21” value ([2]; D 21) was 17.5 g. The “RTV (mean ± SD)” value ([2]; D 21) was 4.30 ± 1.82, the “TV (mm3, mean ± SD) D 21” value ([2]; D 21) was 505 ± 202 mm3 and the “T/C (%)” value ([2]; Day 21) was 48.88%. The “expression of F4/80 in macrophages, U87MG tumor tissue” value [3] was “no significant effect”, the “expression of M2-type macrophage marker CD206, U87MG tumor tissue” value [4] was “no significant effect” and the “expression of F4/80, HT-29 tumor tissue” value [5] was “no inhibitory activity”. For the same compound, the “expression of CD206, HT-29 tumor tissue” value [6] was “no inhibitory activity”, the “Median survival time, MST” value ([7]; 40 mg/kg po twice a day from Day 8) was 41 days and 41.0 days and the “day of first death in the group” value [7, 9] was 28 days. The “day of last death in the group” value [7, 9] was 48 days and the “ILS (%), Increase in Life Span” value ([7]; 40 mg/kg, vs solvent group MST) was −10.87%.
In the case of Yervoy: an anti-CTLA-4 antibody, the “patients experiencing immune-related adverse events” value [8] is listed as “up to 60%” and the “share of immune-related adverse events that were severe (grade 3-4)” value [8] is listed as 10-30%.
